Results: US20190151210A1, “METHOD AND COMPOSITION FOR TREATING SKIN CONDITIONS” (L'OREAL, priority 2016, published 2019)
Values joined by “and” are separate entries in the source; they are usually repeats but may differ in a detail not shown here. Identical values can stand only once.

Assay: solubility of active ingredients in base oil composition
Format: physicochemical
Conditions: for Loading (wt %), soluble in base oil composition: loading not marked with *
Source text: The booster compositions described above include the active ingredients noted specifically for the categorical skin condition (e.g., skin brightness, skin wrinkles, visibility of pores, skin texture, and/or skin redness). In addition, the compositions cosolubilize to permit easy dispersion of the booster composition into the base oil composition. In addition to easy dispersion, the system according to the present disclosure ensures rapid homogeneity of the final products after combination of booster and base components by the consumer. In each of the booster compositions, at least one of the ingredients in the base oil composition are included in the booster compositions. For example, in one embodiment, squalane is included in each of the booster compositions. In one particularly advantageous embodiment, greater than about 20% or greater than about 25% or greater than about 30% or greater than about 35%, by weight of total composition squalane is included in each of the booster compositions. Visual assessment may be conducted to ensure cosolubility. For example, cosolubility may be determined by visual determination of incompatibility, immicible components, precipitates or other visual indicators indicating a lack of cosolubility.

Structure (SMILES) | Loading (wt %), soluble in base oil composition | Loading (wt %), insoluble in base oil composition (loading marked * = Insoluble)
CCCCCCCCC(CCCCCC)C(=O)OC[C@H](OC(=O)C(CCCCCC)CCCCCCCC)[C@H]1OC(=O)C(OC(=O)C(CCCCCC)CCCCCCCC)=C1OC(=O)C(CCCCCC)CCCCCCCC (stereo partly shown) [Ascorbyl Tetraisopalmitate] | 40% wt % and 50% wt % and 60% wt % | –
CC(c1ccccc1)c1ccc(O)cc1O (stereo not shown) [Phenylethyl Resorcinol] | 5% wt % and 10% wt % and 15% wt % | –
O=C(O)c1ccccc1O [Salicylic Acid] | 3% wt % | 5%* wt % and 10%* wt % and 15%* wt %
